Results reported in patent US20110212053A1, “PHOSPHATIDYLINOSITOL 3 KINASE INHIBITORS” (priority 2008, published 2011).

Columns and labels:
Format in all cases: biochemical
PI3Kγ = target: T1, PI3Kγ (Homo sapiens, UniProt P48736); assay: KinaseGLO luminescent PI3-kinase assay, PI3Kγ
T1 construct: purchased Invitrogen or Millipore
Experimental: (§1) Compound Preparation: KinaseGLO assay: 30× stocks of inhibitors were prepared in DMSO. A 10 mM master stock was prepared and all other stocks were generated by serial dilution of this master stock in DMSO. The final concentration of DMSO in the kinase reaction was 3.3% (v/v).
(§2) PI3-Kinase Assay: The KinaseGLO® Luminescent Kinase Assay (Promega) is a luciferin-luciferase based luminescent assay that utilizes a proprietary thermostable luciferase to quantify the ATP remaining in a solution after a kinase reaction. The luminescent signal generated using KinaseGLO® directly correlates with ATP concentration, and therefore inversely correlates with kinase activity.
(§3) PI3K enzyme sample was thawed and diluted to 100 ng/μL in enzyme dilution buffer (50 mM HEPES, pH7.5, 3.0 mM MgCl2, 1.0 mM EGTA) and stored on ice. PI3Kα enzyme was diluted to a final concentration of 1 ng/μL in reaction buffer (for PI3Kα; 50 mM HEPES, pH7.5, 100 mM NaCl, 2.0 mM DTT, 3.0 mM MgCl2, 1.0 mM EGTA, 10 μM ATP) and gently mixed. 25 μL of this kinase reaction was then aliquoted into test wells in a Microfluor2 white 96-well plate (Thermo Scientific). As a preincubation step, 1 μl of 30× compound dilutions was added to the appropriate test wells to generate a ten point dose-response ranging from 0.0 μM-10 μM inhibitor. […] Luminescent signal was detected using a SpectraMax M5 (Molecular Devices). Maximal luminescence (no PI3K activity/maximal PI3K inhibition) was determined from reaction buffer plus SC-PI substrate only controls. The minimal signal (maximal PI3K activity) was determined by the 0.0 μM compound (DMSO only) control. IC50 values were calculated via non-linear regression using GraphPad Prism data analysis software.
(§4) Compounds were assayed against the Class I PI3Kα, PI3Kβ, PI3Kγ, PI3Kδ, PI3Kα(H1047R) and PI3Kα(E545K) in the KinaseGLO assay as described in Example 2, and against the Class IV PI3K mTOR in the radiometric assay. IC50 values (μM) were determined using 8-10 point half-log dose dilutions and calculated via nonlinear regression analysis using Graphpad Prism data analysis software.

PI3Kα = target: T2, PI3Kα (Homo sapiens, UniProt P42336); assay: KinaseGLO luminescent PI3-kinase assay, PI3Kα
T2 construct: purchased Invitrogen or Millipore
T2 sequence (P42336 whole entry): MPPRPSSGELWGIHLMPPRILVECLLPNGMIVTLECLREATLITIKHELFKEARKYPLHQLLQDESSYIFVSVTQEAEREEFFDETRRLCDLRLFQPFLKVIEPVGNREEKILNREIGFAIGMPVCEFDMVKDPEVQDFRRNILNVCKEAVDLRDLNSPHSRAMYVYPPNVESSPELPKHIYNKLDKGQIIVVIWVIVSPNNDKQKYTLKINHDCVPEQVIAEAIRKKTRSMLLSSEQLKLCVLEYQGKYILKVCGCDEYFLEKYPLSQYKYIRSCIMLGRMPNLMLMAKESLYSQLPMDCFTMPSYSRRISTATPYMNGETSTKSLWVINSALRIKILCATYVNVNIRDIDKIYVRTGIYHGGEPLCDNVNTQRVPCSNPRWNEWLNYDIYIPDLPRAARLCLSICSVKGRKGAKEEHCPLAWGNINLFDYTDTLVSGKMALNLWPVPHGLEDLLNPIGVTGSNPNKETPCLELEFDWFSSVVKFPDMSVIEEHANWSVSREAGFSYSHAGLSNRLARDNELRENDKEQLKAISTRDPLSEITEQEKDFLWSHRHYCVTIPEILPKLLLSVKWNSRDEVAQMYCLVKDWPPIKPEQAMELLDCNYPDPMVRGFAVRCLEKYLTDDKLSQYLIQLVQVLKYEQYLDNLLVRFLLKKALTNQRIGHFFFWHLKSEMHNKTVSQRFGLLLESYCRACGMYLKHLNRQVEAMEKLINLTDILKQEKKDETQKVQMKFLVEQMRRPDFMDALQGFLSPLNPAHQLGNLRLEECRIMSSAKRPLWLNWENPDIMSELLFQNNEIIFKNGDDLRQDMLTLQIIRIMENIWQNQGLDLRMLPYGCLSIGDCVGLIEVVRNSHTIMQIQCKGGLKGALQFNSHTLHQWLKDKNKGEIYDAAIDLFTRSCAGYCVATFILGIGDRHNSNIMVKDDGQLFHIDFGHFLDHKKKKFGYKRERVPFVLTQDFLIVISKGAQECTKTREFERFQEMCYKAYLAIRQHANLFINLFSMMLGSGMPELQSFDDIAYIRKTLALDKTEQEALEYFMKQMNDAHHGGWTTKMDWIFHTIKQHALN
T2 sequence (P27986 whole entry partner): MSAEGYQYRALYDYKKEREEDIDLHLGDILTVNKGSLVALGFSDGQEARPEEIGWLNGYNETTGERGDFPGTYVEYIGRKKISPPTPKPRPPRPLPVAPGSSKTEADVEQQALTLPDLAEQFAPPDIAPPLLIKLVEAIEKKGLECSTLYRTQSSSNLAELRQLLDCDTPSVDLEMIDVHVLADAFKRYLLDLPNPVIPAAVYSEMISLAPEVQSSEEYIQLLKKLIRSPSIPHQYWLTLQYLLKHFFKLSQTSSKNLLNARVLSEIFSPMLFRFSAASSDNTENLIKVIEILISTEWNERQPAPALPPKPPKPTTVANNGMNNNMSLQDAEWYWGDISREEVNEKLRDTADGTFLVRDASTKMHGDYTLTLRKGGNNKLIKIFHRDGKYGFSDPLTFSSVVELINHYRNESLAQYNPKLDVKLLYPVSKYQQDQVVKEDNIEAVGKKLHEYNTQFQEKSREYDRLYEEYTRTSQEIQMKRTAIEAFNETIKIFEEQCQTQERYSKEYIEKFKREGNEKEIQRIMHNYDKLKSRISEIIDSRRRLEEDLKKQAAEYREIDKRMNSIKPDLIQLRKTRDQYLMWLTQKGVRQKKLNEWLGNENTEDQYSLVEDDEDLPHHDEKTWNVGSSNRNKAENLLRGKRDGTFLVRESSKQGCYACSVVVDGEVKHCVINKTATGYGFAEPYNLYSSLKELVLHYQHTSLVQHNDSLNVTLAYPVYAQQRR
Experimental: as §1, §2
PI3K enzyme sample was thawed and diluted to 100 ng/μL in enzyme dilution buffer (50 mM HEPES, pH7.5, 3.0 mM MgCl2, 1.0 mM EGTA) and stored on ice. PI3Kα enzyme was diluted to a final concentration of 1 ng/μL in reaction buffer (for PI3Kα; 50 mM HEPES, pH7.5, 100 mM NaCl, 2.0 mM DTT, 3.0 mM MgCl2, 1.0 mM EGTA, 10 μM ATP) and gently mixed. 25 μL of this kinase reaction was then aliquoted into test wells in a Microfluor2 white 96-well plate (Thermo Scientific). As a preincubation step, 1 μl of 30× compound dilutions was added to the appropriate test wells to generate a ten point dose-response ranging from 0.0 μM-10 μM inhibitor. The enzyme-inhibitor mixture was then incubated for 30 minutes at 4° C. After this preincubation, […] (50 μM final concentration) was added to each test well to initiate the kinase reaction. Reactions were incubated at room temperature for 2 hours with moderate shaking. The KinaseGLO® luminescent reagent (Promega) was prepared according to the manufacturer's instructions. Both the KinaseGLO® buffer and substrate were allowed to thaw and equilibrate at room temperature for two hours prior to mixing and use. The PI3-kinase reaction was terminated by the addition of 30 μL of reconstituted KinaseGLO® reagent to each reaction well and then incubated in the dark for 10 minutes at room temperature. Luminescent signal was detected using a SpectraMax M5 (Molecular Devices). Maximal luminescence (no PI3K activity/maximal PI3K inhibition) was determined from reaction buffer plus SC-PI substrate only controls. The minimal signal (maximal PI3K activity) was determined by the 0.0 μM compound (DMSO only) control. IC50 values were calculated via non-linear regression using GraphPad Prism data analysis software.
as §4

PI3Kα(H1047R) = target: T3, PI3Kα(H1047R) (Homo sapiens, UniProt P42336, H1047R); assay: KinaseGLO luminescent PI3-kinase assay, mutant PI3Kα(H1047R)
T3 construct: purchased Invitrogen or Millipore
T3 sequence (P42336 whole entry H1047R): as the sequence (P42336 whole entry) above, with H1047R counted along it
T3 sequence (P27986 whole entry partner): as the sequence (P27986 whole entry partner) above
Experimental: as §1, §2, §3, §4

MELK = target: T4, MELK (Homo sapiens, UniProt Q14680); assay: MELK kinase assay (KinaseGLO)
T4 construct: purchased Invitrogen or Millipore
T4 sequence (Q14680 whole entry): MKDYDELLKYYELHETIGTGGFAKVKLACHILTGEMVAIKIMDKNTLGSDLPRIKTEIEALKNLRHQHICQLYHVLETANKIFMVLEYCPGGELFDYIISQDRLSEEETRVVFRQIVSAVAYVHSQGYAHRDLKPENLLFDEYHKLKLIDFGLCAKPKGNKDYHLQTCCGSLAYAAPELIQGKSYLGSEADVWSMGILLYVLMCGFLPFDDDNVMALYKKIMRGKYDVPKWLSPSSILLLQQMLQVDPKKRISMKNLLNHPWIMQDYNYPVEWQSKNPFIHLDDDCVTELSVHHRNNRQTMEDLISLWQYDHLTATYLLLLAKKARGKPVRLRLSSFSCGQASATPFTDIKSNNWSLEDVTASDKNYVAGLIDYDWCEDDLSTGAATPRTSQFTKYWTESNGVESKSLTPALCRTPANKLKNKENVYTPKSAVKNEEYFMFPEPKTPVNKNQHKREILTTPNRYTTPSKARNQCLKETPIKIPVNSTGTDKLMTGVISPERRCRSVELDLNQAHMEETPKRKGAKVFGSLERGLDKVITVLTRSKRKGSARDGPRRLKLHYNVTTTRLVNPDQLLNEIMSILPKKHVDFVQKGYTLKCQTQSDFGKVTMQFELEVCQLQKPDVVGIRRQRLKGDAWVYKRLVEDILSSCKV
Experimental: as §1
MELK kinase assay: The ability of compounds to inhibit MELK was also determined using the KinaseGLO assay. Briefly, MELK enzymes was thawed and diluted to a final concentration of 2.64 ng/μL in reaction buffer (50 mM HEPES, pH7.5, 100 mM NaCl, 2.0 mM DTT, 3.0 mM MgCl2, 1.0 mM EGTA, 10 μM ATP). 19 μl of this kinase reaction mixture was aliquoted into test wells (50 ng MELK/well) in a Microfluor2 white 96-well plate (Thermo Scientific). As a preincubation step, 1 μl of 30× compound dilutions was added to the appropriate test wells to generate a ten point dose-response ranging from 0.0 μM-10 μM inhibitor, and incubated for 15 minutes at 4° C. The reaction was started by addition of 10 μL of 150 μM ZIPtide peptide substrate resuspended in reaction buffer (50 μM final concentration of ZIPtide). Reactions were incubated at room temperature for 2 hours prior to addition of 30 μL of KinaseGLO reagent and development as described. Maximal luminescence (no MELK activity/maximal MELK inhibition) was determined from reaction buffer plus peptide substrate only controls. The minimal signal (maximal MELK activity) was determined by the 0.0 μM compound (DMSO only) control. IC50 values were calculated via non-linear regression using GraphPad Prism data analysis software. […]
Compounds of the invention were assayed against the select kinases using the KinaseGLO assay (MELK) or the radiometric assay (PIM, TRKC, PDGFRα(D842V), MNK1 and mTOR). IC50 values were determined using 8-10 point half-log dose dilutions and calculated via nonlinear regression analysis using Graphpad Prism data analysis software.

PI3Kβ = target: T5, PI3Kβ (Homo sapiens, UniProt P42338); assay: KinaseGLO luminescent PI3-kinase assay, PI3Kβ
T5 construct: purchased Invitrogen or Millipore
T5 sequence (P42338 whole entry): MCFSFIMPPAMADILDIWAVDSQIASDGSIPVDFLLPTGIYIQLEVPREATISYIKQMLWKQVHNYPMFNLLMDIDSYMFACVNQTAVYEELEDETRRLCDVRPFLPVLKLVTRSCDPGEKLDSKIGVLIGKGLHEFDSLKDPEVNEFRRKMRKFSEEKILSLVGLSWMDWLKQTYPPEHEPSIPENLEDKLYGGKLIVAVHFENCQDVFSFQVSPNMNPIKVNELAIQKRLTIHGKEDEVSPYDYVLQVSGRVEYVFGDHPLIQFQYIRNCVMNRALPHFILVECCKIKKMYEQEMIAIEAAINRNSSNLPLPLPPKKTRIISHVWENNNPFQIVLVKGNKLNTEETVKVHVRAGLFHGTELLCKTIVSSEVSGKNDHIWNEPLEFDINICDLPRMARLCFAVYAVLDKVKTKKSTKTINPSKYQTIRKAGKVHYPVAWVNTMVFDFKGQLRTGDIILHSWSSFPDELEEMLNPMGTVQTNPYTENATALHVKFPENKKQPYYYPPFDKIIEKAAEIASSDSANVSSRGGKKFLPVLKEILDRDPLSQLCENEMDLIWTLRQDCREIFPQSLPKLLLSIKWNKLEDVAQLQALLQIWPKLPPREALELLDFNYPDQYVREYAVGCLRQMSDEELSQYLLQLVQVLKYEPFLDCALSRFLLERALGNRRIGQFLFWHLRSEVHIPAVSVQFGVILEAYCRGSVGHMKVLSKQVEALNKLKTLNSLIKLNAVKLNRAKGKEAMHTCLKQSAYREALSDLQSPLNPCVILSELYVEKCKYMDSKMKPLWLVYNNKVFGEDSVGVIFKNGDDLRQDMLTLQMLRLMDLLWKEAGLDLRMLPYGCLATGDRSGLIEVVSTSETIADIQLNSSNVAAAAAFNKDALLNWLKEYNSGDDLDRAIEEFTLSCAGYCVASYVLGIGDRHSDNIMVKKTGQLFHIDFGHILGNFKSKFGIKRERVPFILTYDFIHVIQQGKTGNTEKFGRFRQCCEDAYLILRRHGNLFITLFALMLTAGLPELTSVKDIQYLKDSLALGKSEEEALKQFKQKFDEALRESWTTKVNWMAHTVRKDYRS
T5 sequence (P27986 whole entry partner): as the sequence (P27986 whole entry partner) above
Experimental: as §1, §2, §3, §4

T1 sequence (P48736 whole entry): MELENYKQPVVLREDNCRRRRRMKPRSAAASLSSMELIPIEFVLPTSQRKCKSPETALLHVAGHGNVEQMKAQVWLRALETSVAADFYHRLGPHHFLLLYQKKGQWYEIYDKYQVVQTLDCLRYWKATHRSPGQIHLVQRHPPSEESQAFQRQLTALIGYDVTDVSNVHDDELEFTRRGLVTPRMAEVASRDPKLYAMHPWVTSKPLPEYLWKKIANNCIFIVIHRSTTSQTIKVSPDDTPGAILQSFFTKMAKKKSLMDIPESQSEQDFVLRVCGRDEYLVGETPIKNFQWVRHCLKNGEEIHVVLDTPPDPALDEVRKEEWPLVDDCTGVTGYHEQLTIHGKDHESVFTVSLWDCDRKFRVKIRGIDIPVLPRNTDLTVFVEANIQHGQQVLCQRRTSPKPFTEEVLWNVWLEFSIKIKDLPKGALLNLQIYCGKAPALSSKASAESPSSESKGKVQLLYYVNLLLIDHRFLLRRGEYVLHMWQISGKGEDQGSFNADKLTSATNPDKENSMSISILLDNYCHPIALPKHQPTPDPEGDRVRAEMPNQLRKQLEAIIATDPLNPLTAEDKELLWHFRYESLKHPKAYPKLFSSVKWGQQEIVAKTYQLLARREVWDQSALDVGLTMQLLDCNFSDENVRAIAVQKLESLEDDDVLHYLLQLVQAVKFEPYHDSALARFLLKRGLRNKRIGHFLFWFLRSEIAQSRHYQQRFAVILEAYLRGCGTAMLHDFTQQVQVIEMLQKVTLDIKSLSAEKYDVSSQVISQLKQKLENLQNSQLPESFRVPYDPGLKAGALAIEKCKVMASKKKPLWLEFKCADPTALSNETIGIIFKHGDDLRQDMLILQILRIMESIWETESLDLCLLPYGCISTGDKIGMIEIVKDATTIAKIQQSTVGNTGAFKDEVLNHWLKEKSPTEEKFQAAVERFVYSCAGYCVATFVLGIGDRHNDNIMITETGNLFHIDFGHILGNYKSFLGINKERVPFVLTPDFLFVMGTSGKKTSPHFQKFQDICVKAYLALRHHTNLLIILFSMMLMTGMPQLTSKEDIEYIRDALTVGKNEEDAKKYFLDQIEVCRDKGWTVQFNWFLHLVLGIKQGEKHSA

For `CC(C)(C#N)c1ccc(-c2n[nH]c3cnc4ccc(-c5cnc6ccccc6c5)cc4c23)cc1` [Compound 1078, 2-methyl-2-(4-(8-(quinolin-3-yl)-3H-pyrazolo[3,4-c]quinolin-1-yl)phenyl)propanenitrile], the IC50 (PI3Kγ) was 10 to 25 nM, the IC50 (PI3Kα) was > 20 nM and the IC50 (PI3Kα(H1047R)) was > 25 nM. The IC50 (MELK) was > 30 nM and the IC50 (PI3Kβ) was > 50 nM.

In the case of `CC(C)(C#N)c1ccc(-c2n[nH]c3cnc4ccc(-c5cccnc5)cc4c23)cc1` [Compound 1107, 2-methyl-2-(4-(8-(pyridin-3-yl)-3H-pyrazolo[3,4-c]quinolin-1-yl)phenyl)propanenitrile], the IC50 (PI3Kγ) is reported as 10 to 25 nM, the IC50 (PI3Kα) is reported as < 10 nM and the IC50 (PI3Kα(H1047R)) is reported as 5 to 25 nM. The IC50 (MELK) was < 12 nM and the IC50 (PI3Kβ) was 35 to 50 nM.

With `CC(C)(C#N)c1ccc(-c2n[nH]c3cnc4ccc(-c5ccc6ncccc6c5)cc4c23)cc1` [Compound 1110, 2-methyl-2-(4-(8-(quinolin-6-yl)-3H-pyrazolo[3,4-c]quinolin-1-yl)phenyl)propanenitrile] the IC50 (PI3Kγ) was 10 to 25 nM, the IC50 (PI3Kα) was < 10 nM and the IC50 (PI3Kα(H1047R)) was > 25 nM. The IC50 (MELK) was > 30 nM and the IC50 (PI3Kβ) was > 50 nM.
